Measurements as given in patent US11912683B1 (priority 2023, dated 2024).
≈ marks a conversion by molar mass, not a printed value.

System: multidrug-resistant (MDR) strains of Mycobacterium tuberculosis
Test: microbe, parasite or virus in culture
Type: cell-based
Conditions: 192 h, read-out: Anti-tubercular activity against Mycobacterium tuberculosis MDR (MIC)

| Structure (SMILES) | MIC [µg/mL] |
| --- | --- |
| CC1=C(C(=O)N2CCCCC2)C(c2ccccc2)NC(=S)N1 (stereo not shown) [DHPM-KN1, (6-Methyl-4-phenyl-2-thioxo-1,2,3,4-tetrahydropyrimidin-5-yl)(piperidin-1-yl)methanone] | 64 (≈ 203 µM) |
| COC(=O)C1=C(C)NC(=O)NC1c1ccc([N+](=O)[O-])cc1[N+](=O)[O-] (stereo not shown) [DHPM-KN4, Methyl 4-(2,4-dinitrophenyl)-6-methyl-2-oxo-1,2,3,4-tetrahydropyrimidine-5-carboxylate] | 64 (≈ 190 µM) |
| CC1=C(C(=O)N2CCCCC2)C(c2ccc([N+](=O)[O-])cc2)NC(=S)N1 (stereo not shown) [DHPM-KN5, (6-Methyl-4-(4-nitrophenyl)-2-thioxo-1,2,3,4-tetrahydropyrimidin-5-yl)(piperidin-1-yl)methanone] | 32 (≈ 88.8 µM) |
| CC1=C(C(=O)N2CCCCC2)C(c2ccc(Br)cc2)NC(=S)N1 (stereo not shown) [DHPM-KN6, (4-(4-Bromophenyl)-6-methyl-2-thioxo-1,2,3,4-tetrahydropyrimidin-5-yl)(piperidin-1-yl)methanone] | 128 (≈ 325 µM) |
| COc1ccc(C2NC(=S)NC(C)=C2C(=O)N2CCCCC2)cc1 (stereo not shown) [DHPM-KN7, (4-(4-Methoxyphenyl)-6-methyl-2-thioxo-1,2,3,4-tetrahydropyrimidin-5-yl)(piperidin-1-yl)methanone] | 256 (≈ 741 µM) |
| CC1=C(C(=O)N2CCCCC2)C(c2ccccc2C)NC(=S)N1 (stereo not shown) [DHPM-KN8, (6-Methyl-2-thioxo-4-(o-tolyl)-1,2,3,4-tetrahydropyrimidin-5-yl)(piperidin-1-yl)methanone] | 256 (≈ 777 µM) |
| CC1=C(C(=O)N2CCCCC2)C(c2ccc(C(F)(F)F)cc2)NC(=S)N1 (stereo not shown) [DHPM-KN10, (6-Methyl-2-thioxo-4-(4-(trifluoromethyl)phenyl)-1,2,3,4-tetrahydropyrimidin-5-yl)(piperidin-1-yl)methanone] | 256 (≈ 668 µM) |
